Results reported in patent US11697850B2, “Polymorphism in the Apo(a) gene predict responsiveness to acetylsalicylic acid treatment” (Celera Corporation, priority 2007, dated 2023).

Experiment: Women's Health Study (WHS): randomized trial of low dose aspirin vs placebo, incident cardiovascular events stratified by rs3798220 genotype or Lp(a) level
Format: in vivo, human
Conditions: for relative risk reduction of major vascular events with aspirin: aspirin 100 mg orally on alternate days vs placebo, 10-year follow-up
Description: The genotype of this polymorphism was therefore determined among 26,274 initially healthy women from the Women's Health Study (WHS) who had been randomly allocated to low dose aspirin or placebo and then followed over a 10-year period for incident cardiovascular events (31). This setting afforded the opportunity for prospective assessment not only of rs3798220 association with Lp(a) levels and vascular risk, but also of an interaction between aspirin and genetic effects on risk. Although most of the study participants were Caucasian, there were sufficient numbers of non-Caucasian participants to address population-specific influences on associations between rs3798220 and Lp(a) levels, as have been found in previous comparisons of other apolipoprotein(a) variants among populations with different biogeographic ancestry (32-36).
Study Populations: The primary study population derived from the Women's Health Study (WHS), a randomized trial of aspirin (100 mg orally on alternate days) and placebo in the primary prevention of cardiovascular disease conducted among initially healthy women aged at least 45 at enrollment who were followed over a 10 year period (1, 2). At enrollment, participants provided baseline clinical and demographic information. 28,345 WHS participants provided blood for plasma and genetic analysis. Among these samples, baseline Lp(a) levels were measured with a turbidimetric assay that is not affected by the number of Kr IV type-2 repeats on the Hitachi 917 analyzer (Roche Diagnostics, Indianapolis, Ind.) (3). Baseline measurement of other lipid fractions, inflammation biomarkers, and other plasma components has been described previously (4). Total incident cardiovascular events adjudicated during the follow-up period included those typically associated with plaque rupture and vessel occlusion such as myocardial infarction (MI), ischemic stroke, and cardiovascular death, as well as those typically associated with progression of underlying atherosclerotic disease defined as revascularization by percutaneous transluminal coronary angioplasty (PTCA) or coronary artery bypass graft (CABG). Major incident cardiovascular events were defined as myocardial infarction, ischemic stroke, or cardiovascular death. In addition, the association between rs3798220 and plasma Lp(a) levels was evaluated in an independent group of 1058 Caucasian men who had participated in the Physicians Health Study (PHS) (5). Among these PHS participants, Lp(a) levels were determined with a standard clinical ELISA-based method (6).
Genotyping: Genotypes for rs3798220 in the WHS participants were determined by an oligonucleotide ligation procedure that combined PCR amplification of target sequences from 3 ng of genomic DNA with subsequent allele-specific oligonucleotide ligation (7). The ligation products of the two alleles were then separated by hybridization to product specific oligonucleotides, each coupled to spectrally distinct Luminex®100™ xMAP microspheres (Luminex, Austin, Tex.). The captured products were fluorescently labeled with streptavidin R-phycoerythrin (Prozyme, San Leandro, Calif.), sorted on the basis of microsphere spectrum, and detected by a Luminex®100™ instrument (8). Genotypes at rs3798220 in the PHS were determined with a fluorescence-based, allele specific, real-time DNA amplification method as described (ABI, Foster City) (9). For the WHS and PHS populations respectively, the fractions of samples with successful genotype determination were 96.3% and 97.8%. Of the 27,289 women with DNA samples for genotyping, full ascertainment for rs3798220 genotype, Lp(a) levels, age, and occurrence of incident cardiovascular events were available for 25,436. Of these, 24,320 were Caucasian, 468 were African-American, 282 were Asian American, 262 where Hispanic, 62 were Native American, and 42 had unknown ancestry.
Statistical methods: Deviations from Hardy-Weinberg equilibrium were evaluated using a log-likelihood ratio test. […]

CC(=O)Oc1ccccc1C(=O)O [aspirin, acetylsalicylic acid]
relative risk reduction of major vascular events with aspirin (Caucasian WHS women, non-carriers of rs3798220 minor allele (TT)): 9%
relative risk reduction of coronary revascularization with aspirin (Caucasian WHS women, rs3798220 heterozygotes, aspirin 100 mg on alternate days vs placebo): 36%
relative risk reduction of major vascular events with aspirin (Caucasian WHS women, rs3798220 heterozygotes): 59%
effect of aspirin on relative risk of vascular events (Caucasian non-carriers of rs3798220 minor allele with Lp(a) above the 90th percentile (65.1 mg/dL)): reduced the relative risk of vascular events
effect of aspirin on relative risk of vascular events (Caucasian non-carriers of rs3798220 minor allele with Lp(a) below the 90th percentile): minimal effect
relative risk reduction for the revascularization endpoint with aspirin (Caucasians with Lp(a) levels above the 90th percentile (65.1 mg/dL), aspirin vs placebo): 39%
